The nature of series [1]: Metabolic stability in human liver microsome assessed as half life measured upto 60 mins by LC-MS/MS analysis. The following applies: liver microsomes. Type of series: ADME. Background: Microsomes from liver hold many membrane-bound enzymes, among them those of drug oxidation.
In series [2] the test system is AHH-1. The experiment in a line: Induction of cell cycle arrest in human AHH-1 cells assessed as accumulation of cells at G2/M phase at 1000 nM incubated for 72 hrs by annexin V-FITC and PI staining based flow cytometry analysis. In kind it is functional. For orientation: A flow cytometer gives signals particle by particle.
The next series deals with MCF7. Kind of series: Antiproliferative activity against human MCF7 cells assessed as inhibition of cell growth measured for 48 hrs by MTT assay. Type of series: functional, cell-based. The following applies: MCF7, 48 h. For orientation: Formazan colour is commonly taken as a measure of viable cells.
In the next series the test system is HeLa. Kind of series: Induction of apoptosis in human HeLa cells assessed as viable cells measured after 72 hrs by annexin V-FITC and PI staining based flow cytometry analysis. In kind it is functional, cell-based. The following applies: dose 100-2500 nM.
Series [3] in a line: Toxicity in human T cells derived from human PBMC assessed as early apoptotic cells at 2.5 uM measured for 72 hrs by annexin V-FITC and PI staining based flow cytometry analysis (reference value: 9.70 to […]). The following applies: t-cell.
Series [4] in a line: Toxicity in human T cells derived from human PBMC assessed as late apoptotic cells at 2.5 uM measured for 72 hrs by annexin V-FITC and PI staining based flow cytometry analysis (reference value: 11.5 to 17.6%). The following applies: t-cell.
Series [5] is described as follows: Toxicity in human T cells derived from human PBMC assessed as late apoptotic cells at 2.5 uM measured for 48 hrs by annexin V-FITC and PI staining based flow cytometry analysis (reference value: 13.5 to […] %). Particulars: t-cell.
Series [6] deals with TMD8. Kind of series: Antitumor activity against human TMD8 cells xenografted in NOD/SCID mouse assessed as reduction in tumor volume at 100 mg/kg, po administered for 5 days and measured on day 1. In kind it is functional. Particulars: time 1 day.
Series [7] can be described thus: Toxicity in human T cells derived from human PBMC assessed as necrotic cells at 0.1 uM measured for 72 hrs by annexin V-FITC and PI staining based flow cytometry analysis (reference value: 0.48 to 0.56 %). Particulars: t-cell.
Series [8] relates to AHH-1. Kind of series: Induction of cell cycle arrest in human AHH-1 cells assessed as accumulation of cells at G1 phase at 1000 nM incubated for 72 hrs by annexin V-FITC and PI staining based flow cytometry analysis. In kind it is functional.
A short description of series [9]: Toxicity in NOD/SCID mouse assessed as tolerability at 100 mg/kg, po administered for 5 days. In kind it is organism-based. Particulars: in vivo, 120 h, time 5 day.
In the next series the target is Tubulin. Kind of series: Inhibition of tubulin polymerization (unknown origin) incubated for 20 mins in presence of GTP by spectrophotometric analysis. Type of series: protein-complex assay, Homo sapiens.
For a further series, the system named is U2932. The experiment in a line: Antiproliferative activity against human U2932 cells assessed as inhibition of cell growth measured for 72 hrs by MTT assay. Type of series: functional, cell-based. Particulars: U2932, 72 h.
The nature of series [10]: Toxicity in human T cells derived from human PBMC assessed as necrotic cells at 2.5 uM measured for 48 hrs by annexin V-FITC and PI staining based flow cytometry analysis (reference value: 0.31 to 0.48 %). The following applies: t-cell.
For series [11], the system named is TMD8. The experiment in a line: Antitumor activity against human TMD8 cells xenografted in NOD/SCID mouse assessed as reduction in tumor volume at 100 mg/kg, po administered for 5 days and measured on day 13. The following applies: time 13 day. In kind it is functional.

In general, half-life refers to how long it takes for the measured level to halve. A word on the IC50: it is the midpoint of a concentration-inhibition curve. Turning to `COc1cc(C(=O)c2ccn(-c3ncnc4[nH]ccc34)c2)cc(OC)c1OC`, the half-life in series [1] was 50.5 min. In addition, the Activity in the series with AHH-1 [2] was 70.8%; in the series on HeLa it was “Dose-Dependent Effect”; in series [3], 10.3%; in series [4], 12.7%; in series [5], 12.2%; in the series with TMD8 [6] it was 252 mm3. For the same compound, the Activity in series [7] is given as 0.48%; in the series with AHH-1 [8], 9.5%; in series [9], “Non-Toxic”; in series [10] it was 0.41%; with TMD8 [11], 354 mm3. In addition, the results for the IC50 in the series on MCF7, on Tubulin and with U2932 were 38 nM, 280 nM and 21 nM, respectively.

(Values after ChEMBL document CHEMBL5352470, “RS6077 induces mitotic arrest and selectively activates cell death in human cancer cell lines and in a lymphoma tumor in vivo” (Eur J Med Chem, 2023).)
